Test results published in patent US20250092345A1, “INTER ORGAN PLATFORM FOR MICROPHYSIOLOGICAL SYSTEM ON A CHIP” (THE TRUSTEES OF COLUMBIA UNIVERSITY IN THE CITY OF NEW YORK, priority 2020, published 2025).

What was measured:
[1] = system: metastatic TE-ES (SK-N-MC); test: Metastatic engineered ES bone tumor (TE-ES) in isolated culture, linsitinib; type: cell-based, human; details: 12 μM
Source text: The effects of linsitinib were studied in an experiment performed according to the 3-week treatment cycle used in the clinical trial (3 days of drug administration followed by 4 days without the drug, in 3 cycles), with luminescence signal serving as an indicator of cancer cell viability within the TE-ES.
Determining the effects of linsitinib on ES cells and osteoblasts within the engineered ES bone tumors across a 3-week clinical drug treatment regimen is shown in FIGS. 33A-33B. […] Supernatants were collected from each individual sample across the duration of the drug treatments and were analyzed for osteoblast function (OCN, OPN) and for cytotoxicity (LDH) (mean±s.e.m., n=3).
Two weeks following the initiation of osteogenic differentiation, aggregates of ES tumor cells were prepared as described previously, using 0.3×10^6 cells per aggregate. After 1 week of culture, corresponding to the end of bone tissue culture (3 weeks), the primary ES cell aggregates were placed into the engineered bone constructs (3 aggregates per construct, placed apart of each other). Tumor models were established for two different types of primary ES cells: non-metastatic (RD-ES) and metastatic (SK-N-MC). Tissue engineered RD-ES and SK-N-MC tumors were cultured in the RPMI and EMEM media, respectively, supplemented with 10% FBS and 1% penicillin/streptomycin. Bone constructs cultured without tumor cell aggregates (TE-bone) in RPMI and EMEM media were used as controls.
Specifically, linsitinib was dissolved at a 10 mM concentration in DMSO (Corning) and mixed in with the respective cell medium at a […] concentration unless otherwise noted. Vehicle treatments involved just the addition of DMSO at identical volumes as a control. Tissues were randomly assigned to experimental groups. Medium was changed every day.
(§1) Cell viability was analyzed using a previously established protocol. Cancer cell viability was measured for GFP-Luciferase labelled cancer cells using ONE-Glo luciferase substrate that was prepared according to manufacturer's protocol (Promega). Samples were collected following 3, 7, and 21 days cycles of linsitinib treatment. Where noted, longitudinal cell viability was also assessed using luminescence, though at the cost of signal strength. Briefly, in vivo grade VivoGlo™ Luciferin (Promega) was made at a 200× stock concentration (30 mg/ml) in water, added to sample culture media at a 1:200 dilution, and scanned using a spectrophotometer (Biotek). Some of the IC50 values were determined using cell viability data generated using an MTT assay (RealTime-Glo™ MT Cell Viability Assay, Promega) that were analyzed according to manufacturer's protocol.
Osteocalcin (OCN), osteopontin (OPN), and lactic acid dehydrogenase (LDH) secreted levels were all measured using a similar approach. […] LDH secretion was determined using a Lactate Dehydrogenase Assay Kit (Colorimetric; Abcam).

[2] = system: non-metastatic and metastatic ES cell lines (RD-ES, SK-N-MC); test: MTT viability assay in ES cell monolayers; type: cell-based, human; details: 0-100 μM over 72 hours
Method: MTT viability assay was used to determine drug toxicity, with luminescence generated by viable cells measured at the endpoint (10^4 cells per well, mean±s.e.m., n=3). […] In order to determine cancer cell viability, cells were lysed and treated with luciferin using a Bright-Glo™ assay, with subsequent luminescence measured (10^4 cells per well, mean±s.e.m., n=3).
as §1

[3] = cited from earlier work
[4] = system: engineered cardiac tissues; test: Engineered cardiac tissues in isolation, linsitinib cardiotoxicity; type: cell-based, human; details: after linsitinib exposure, isolated
Source text: After establishing the capability of TE-ES tumors to model drug efficacy, we evaluated the ability of cardiac tissues to determine the cardiotoxicity of linsitinib. Cardiac tissues were exposed to the same therapeutic concentration of linsitinib as bone tumors. […] Cardiotoxicity of linsitinib has been observed in clinical trials of other types of cancer, with patients presenting proarrhythmic events, like tachycardia (3.75-5% of patients) and atrial fibrillation (3.75-5%). We observed higher beat frequency and higher rate of proarrhythmic events per beat (around 36%) than in clinical studies (FIG. 32B and FIG. 32C). […]
Cardiac tissues were studied using caffeine (50 mM in water; Sigma-Aldrich), amiodarone hydrochloride (2.418 µM in DMSO; Sigma-Aldrich), isoproterenol hydrochloride (a series of drug concentrations in water; Sigma-Aldrich) or doxorubicin hydrochloride (1 µM in DMSO; Sigma-Aldrich), all diluted in RPMI Medium 1640 supplemented with B-27[…]. Response to isoproterenol was analyzed 10 minutes after exposure to […] isoproterenol hydrochloride, diluted in RPMI Medium […] supplemented with B27[…]. […]
To measure the cardiac contractility online, we took contractility videos of the tissues that were analyzed using the native MATLAB code we previously developed. Tissue contractility was measured by tracking the change in tissue area as a function of time. […]

C[C@]1(O)C[C@@H](c2nc(-c3ccc4ccc(-c5ccccc5)nc4c3)c3c(N)nccn32)C1 [linsitinib]
cytotoxicity (LDH secretion) ([1]; 3-week regimen): spiked | osteocalcin secretion ([1]; 3-week regimen): decreased | cancer cell population (luminescence) across the clinical regimen ([1]; 21-day treatment regimen): decrease in drug efficacy, as the cancer cell population continued to expand | drug response (luminescence) ([1]; after 3 days): significant drug response | osteopontin secretion ([1]; throughout the 21 days): decreased | IC50 (MTT viability assay) [2]: two orders of magnitude lower than the effective plasma concentration observed in patients | half-life [3]: approximately 5 hours | inotropic response to subsequent isoproterenol [4]: not observed
